Test results reported in patent publication US12636260B2, “Application of α-asarone in preparation of medicine for preventing or treating hemorrhagic stroke” (CHENGDU XINRUI TAIKANG TECHNOLOGY CO., LTD., priority 2021, dated 2026).

Columns and labels:
[1] = test system: SAH rats; experiment: Glutamate and GABA content in brain tissue, SAH rats; assay type: in vivo, rat; details: 12 to 24 hours after operation, group M
Description: The rats were deeply anesthetized, and decapitated to collect the brain at 12-24 hours after modeling. Then about 60 to 120 mg of brain cortex on the hemorrhagic side were weighed, homogenized with 10 times the volume of ice-cold centrifuge buffer for biochemical detection, homogenized for 10 min in an ice bath, and centrifuged at 4° C. for 30 minutes (14,000 rpm/min). The contents of glutamate and GABA in the supernatant were detected according to the instructions of glutamate content detection kit and rat GABA Elisa kit.

[2] = test system: ICH rats; experiment: Ca2+ level and mitochondrial membrane potential in brain tissue, ICH rats; assay type: in vivo, rat; details: 12-24 hours after operation, group M
Description: The rats were decapitated to collect the brain 12 to 24 hours after modeling. The brain cortex around the hematoma was immediately taken to prepare a single cell suspension by enzymatic digestion (papain: 2 mg/mL; DNAase I: 0.05 mg/mL), with the cell concentration was adjusted to 5×10^6 cells/mL. 100 μL of cell suspension was incubated with 5 μM Fluo-3/AM dye solution or 10 μM Rhodamine 123 dye solution at 37° C. for 45 min. Then the cells were washed twice with PBS (phosphate buffer, pH=7.2-7.4), resuspended with 0.5 mL of PBS, and detected by a flow cytometry at the excitation wavelength of 506 nm and the emission wavelength of 526 nm. The mean fluorescence intensity of Fluo-3 and Rh123 in 10,000 cells was analyzed by FlowJo software.

[3] = test system: SAH rats; experiment: Secondary epilepsy in SAH rats (Racine score, seizures); assay type: in vivo, rat; details: within 24 hours after SAH
Description: The experimental materials, grouping, modeling method and administration protocol were the same as those in the effect embodiment 1, and the seizures of rats in each group were observed within 24 hours after SAH.

[4] = test system: SAH rats; experiment: Morris water maze and brain tissue atrophy of SAH rats in recovery phase; assay type: in vivo, rat
Description: Morris water maze was used to evaluate the long-term spatial perception and memory ability of rats in each group, and was performed after the survival observation, i.e., 15 to 19 days after SAH. The water maze was a circular pool with a diameter of 150 cm and a depth of 60 cm. Before the experiment, warm water (24±2)° C. was filled to a depth of 30 cm and colored black with ink. The pool was equally divided into four quadrants, and different signs were pasted on the walls of different quadrants to indicate the difference. A transparent platform with a diameter of 10 cm and a height of 28 cm was placed in the center of one quadrant, and was 2 cm beneath the water. Rats were released from the designated quadrant according to the experimental guidelines. On day 1 to 4, rats were successively released into water from four corresponding quadrants with a 10-minute interval. If the rat found the platform within 60 seconds, it was allowed to remain there for 10 seconds; if not, it was guided to the platform with a rod and allowed to stand there for 10 seconds. On day 5, the platform was removed and the rats were allowed to swim freely for 60 seconds. The escape latency, swimming speed and dwelling time on the target quadrant were recorded using a computerized tracking system (Noldus Ethovision, Tacoma, WA, USA).

[5] = test system: SAH rats; experiment: Long-term survival rate of SAH rats; assay type: in vivo, rat; details: for Survival rate / 24-hour mortality rate: 2 hours after modeling then once a day for 14 days
Description: The experimental materials, grouping and modeling methods were the same as those in effect embodiment 1. The rats were immediately administrated 2 hours after SAH modeling according to the grouping administration protocol and continued to be administrated once a day for 14 days thereafter, and the survival of the rats was observed and recorded for 14 days. The mortality rate within 24 hours in group S was as high as 53.8%.

[6] = test system: PC12 cells; experiment: Oxyhemoglobin-damaged PC12 cells, MTT; assay type: cell-based; details: α-asarone emulsion 1, 5, 10, 25, 50 μM pre-incubated 2 hours, 6 μM oxyhemoglobin 24 hours
Description: PC12 cells in the logarithmic phase of growth were seeded in a 96-well plate (1×10^4 cells/100 μL/well) with the marginal wells filled with sterile PBS, and cultured with complete culture medium at 37° C. with 5% CO2 for 24 hours until the cells completely adhered to the wall. The supernatant was discarded followed by oxyhemoglobin incubation at 37° C. with 5% CO2 for 24 hours with final concentrations of 0 μM, 4 μM, 6 μM, 8 μM and 10 μM, respectively. Subsequently, 10 μL MTT (5 mg/mL) was added into each well and incubated at 37° C. with 5% CO2 for 4 hours. Then, the supernatant was discarded, the formazan was dissolved with 100 μL DMSO, and the optical density (OD) was gauged at 570 nm by a microplate reader after incubation at 37° C. for 15 minutes (500 r/min) to calculate the cell viability. According to the formula “fold of cell abnormal proliferation=[(average absorbance value of the experimental group−average absorbance value of zero-adjusting well)/(average absorbance value of the control group−average absorbance value of zero-adjusting well)”, 6 μM oxyhemoglobin was screened out for following in vitro pharmacodynamic experiment since it produced a maximum of 1.5-fold abnormal cell proliferation compared to the control group. […]

[7] = group H, α-asarone emulsion injection 30 mg/kg tail vein
[8] = group L, α-asarone emulsion injection 7.5 mg/kg tail vein
[9] = group M, α-asarone emulsion injection 15 mg/kg tail vein
[10] = group O, α-asarone emulsion oral administration 40 mg/kg

C/C=C/c1cc(OC)c(OC)cc1OC [α-asarone, trans-2,4,5-trimethoxy-1-propenylbenzene]
GABA content in the hemorrhagic brain tissue [1]: significantly reduce
glutamate content in the hemorrhagic brain tissue [1]: significantly reduce
calcium level in brain tissue ([2]; Fluo-3 flow cytometry): significantly reduce
mitochondrial membrane potential in brain tissue ([2]; Rhodamine 123 flow cytometry): stabilize
incidence of secondary epilepsy [3]: significantly reduce
Clonic seizures (%) [3, 7]: 8.0%
Racine score [3, 7]: 0.73 ± 1.44
Tonic seizures (%) [3, 7]: 6.7%
Clonic seizures (%) [3, 8]: 6.7%
Racine score [3, 8]: 0.53 ± 1.46
Tonic seizures (%) [3, 8]: 6.7%
Clonic seizures (%) [3, 9]: 5.6%
Racine score [3, 9]: 0.44 ± 1.34
Tonic seizures (%) [3, 9]: 5.6%
Clonic seizures (%) [3, 10]: 15.4%
Racine score [3, 10]: 0.77 ± 1.59
Tonic seizures (%) [3, 10]: 7.7%
escape latency during the training period ([4]; Morris water maze, 15 to 19 days after SAH, group M, vs group S): significantly decreased
swimming speed ([4]; Morris water maze, group M vs group S (P<0.05)): significantly faster
time in the target quadrant, spatial probe test ([4]; Morris water maze, group M, vs group S): notably prolonged
brain atrophy ([4]; SAH rats after long-term administration, group M): significantly rescued
survival time (vs group S) ([5]; 14 days, groups M, H, O and N): prolonged
Survival rate ([5]; Day 14, group H, α-asarone emulsion injection 30 mg/kg tail vein): 55.6%
Survival rate ([5]; Day 14, group L, α-asarone emulsion injection 7.5 mg/kg tail vein): 37.5%
Survival rate ([5]; Day 14, group M, α-asarone emulsion injection 15 mg/kg tail vein): 61.5%
Survival rate ([5]; Day 14, group O, α-asarone emulsion oral administration 40 mg/kg): 62.5%
24-hour mortality rate [5, 7]: 22.2%
24-hour mortality rate [5, 8]: 50.0%
24-hour mortality rate [5, 9]: 23.1%
24-hour mortality rate [5, 10]: 25.0%
mortality rate within 24 hours (vs group S) ([5]; groups M, H, O and N): significantly reduced
abnormal increase of cell vitality caused by oxyhemoglobin [6]: significantly reduced
